Data on one compound can be found in US20230118142A1, “AGENTS FOR USE IN THE TREATMENT OF TISSUE DAMAGE” (UCL BUSINESS LTD, priority 2020, published 2023).

Each structure is given as a SMILES string.

For data set [1], the target named is T1, CRP (Homo sapiens, UniProt P02741).
T1 sequence (P02741 19-224): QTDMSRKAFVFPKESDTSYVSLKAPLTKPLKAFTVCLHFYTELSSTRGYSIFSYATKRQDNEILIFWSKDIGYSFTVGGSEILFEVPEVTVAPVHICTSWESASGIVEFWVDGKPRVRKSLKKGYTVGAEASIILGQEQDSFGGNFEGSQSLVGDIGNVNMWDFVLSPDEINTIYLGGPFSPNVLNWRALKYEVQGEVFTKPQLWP
As to the kind of experiment: Roche immunoturbidimetric assay: pure CRP. It counts as binding. Also noted: The final concentrations were 0.73 μM native pentameric CRP; from tissue. The conditions noted are these: pure CRP in TC buffer; read-out: IC50 (μM), SD; inhibition of Roche CRP immunoreactivity. The method in brief: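 Purified human CRP (final 0.73 μM pentamer) incubated 1 h at 37° C with ligand (final 625-0.03 μM) in TC buffer. Remaining CRP quantified by Roche microparticle-enhanced immunoturbidimetric assay, one antibody recognising the ligand-binding B-face, as % of buffer control; EC50 from 4-parameter logistic fit.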

Data set [2] has as its target T1, CRP. In words: In vivo clearance of CRP/ligand complexes generated in vivo in mice. Also noted: The final concentrations were 0.73 μM native pentameric CRP; from tissue. The conditions noted are these: i.v. bolus 18 h after s.c. CRP (1 mg). The procedure: (i) Two groups of 8 wild-type C57BL/6 mice (male; 23-27 weeks old) were used: group 1 (control) and group 2 (treated).
(ii) Both groups of animals were given 200 μl of human CRP (5 mg/ml in azide-free TC buffer) subcutaneously on day 1.
(iii) On day 2 (+18 h), control animals were given a 200 μl intravenous bolus of TC buffer. Treated animals were given a 200 μl iv bolus of ligand (prepared at 5 mg/ml in TC buffer).
(iv) One timed blood sample and a terminal blood sample were collected from each mouse into heparinised tubes and weighed. This generated data in quadruplicate at 4 time points, normally 30, 60, 120 and 360 minutes.
(v) ^125I radiolabel was measured (Perkin Elmer Wizard; protocol #1) in whole blood to quantify total CRP. In some cases, electroimmunoassay as above was also used to determine total CRP concentration.
(vi) Plasma was prepared and free CRP determined by Roche immunoassay.
Subcutaneous injection of human CRP provided circulating CRP concentrations with which to test for effects of our ligands in vivo. (Table 4).

For data set [3], the target named is T1, CRP. In words: In vivo clearance of preformed CRP/ligand complexes in mice. On the set-up: from tissue. The settings on record: complexes formed in vitro, injected intravenously. As for the experimental part: (i) CRP at 1 mg/ml in azide-free TC buffer (containing, in some experiments, ˜10^6 cpm/ml of ^125I-CRP) was incubated with a 5-fold molar excess of ligand. A control (ligand-free) sample was also prepared. Cross linking of CRP was confirmed by SEC in TC buffer of a small sample of complex.
(ii) Two groups of eight wild-type C57BL/6 mice (male; 23-27 weeks old) were used.
The complex or control (200 μl, 200 μg CRP) was injected into the tail vein of each mouse. A single timed collection of blood was taken from the tail vain of each mouse; a second terminal sample was also collected. This yielded 4 samples each at 30, 60, 120 and 180 min for control and treated groups.
(iii) Blood samples were weighed and CRP measured in the Roche assay and, in some cases by electroimmunoassay (4, 13). ^125I-CRP was measured by gamma counting (Perkin Elmer Wizard; protocol #1).
Complexes were prepared in vitro using ^125I-labelled CRP and an excess of ligand, and the mixture was then injected intravenously into mice. Clearance of CRP was monitored by counting of the ^125I-CRP tracer and stable CRP-ligand complexes were detected by lack of CRP detection in the Roche assay of the plasma samples. The formation of CRP/ligand complexes was confirmed by size exclusion chromatography before use in each in vivo experiment.

A short description of data set [4]: In vivo clearance of ligand. The conditions noted are these: male, C57BL/6, mouse, plasma, 0.5 mg; mice, intravenous; read-out: plasma t1/2 of ligand. The procedure:
(i) Ligand (0.5 mg/animal) dissolved in PBS or saline (200 μl) was injected intravenously into the tail vein of six male; 23-27 week old wild-type C57BL/6 mice. Up to two blood samples plus a terminal sample per mouse were collected at each time point up to 180 minutes.
(ii) Serum was prepared and ˜200 ng of internal standard (either ^2H4-BPC6 or BPC9) added. Serum proteins were precipitated with 4 volumes of either ice cold methanol or acetonitrile. The supernatant was dried under vacuum and re-dissolved in 0.1% v/v aqueous formic acid. (iii) Samples were chromatographed on a Phenomenex Aqua column using a gradient of 0.1% v/v formic acid-60% v/v acetonitrile in formic acid, and the eluate passed into the positive ion source of a Quattro II triple quadrupole mass spectrometer. The MRM transitions used were m/z 449.3→390.2 and 453.→394.2 (BPC6) and m/z 477.3→418.3, […] (BPC8).
(iv) Ligand concentrations were measured against an extracted standard curve and were plotted using Sigmaplot (v14) and fitted to a 2-parameter exponential decay.

In general, IC50 refers to the concentration needed to halve the response being measured. `O=P(O)(OCCCCCCCCOP(=O)(O)O[C@@H]1CN2CCC1CC2)O[C@@H]1CN2CCC1CC2` [Pk-023, [(3S)-1-azabicyclo[2.2.2]octan-3-yloxy]({[8-({[(3S)-1-azabicyclo[2.2.2]octan-3-yloxy](hydroxy)phosphoryl}oxy)octyl]oxy})phosphinic acid]: on CRP [1], the half-inhibitory concentration (IC50) came to 0.6 µM. The “Effect on detection of circulating CRP in the Roche assay” value on CRP [2] is “the same as BPC8”. Further, at CRP [3], the “Time Roche CRP value suppressed (persistence of preformed complex in circulation)” value is “suppressed at 15 min but was had returned to control value at 60 min”. The half-life in data set [4] is about 15 min.
